# Experimental data as given in US20220363689A1, “INHIBITOR OF BTK AND MUTANTS THEREOF” (Newave Pharmaceutical Inc., priority 2019, published 2022).
# Where two headings read alike, the source gives them in different places.
# Columns and labels:
# WT BTK [1] = molecular target: T1, WT BTK (Homo sapiens, UniProt Q06187); assay: In vitro dialysis assay (irreversibility assay), WT BTK; format: biochemical; details: reversible or irreversible/covalent inhibition after 24 h dialysis
# Procedure, shortened: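 Compound-BTK complex was dialyzed 24 hr against […] (cumulative factor >160,000×). Residual activity was then […] and 1 mM substrate peptide and compared with non-dialyzed samples. Buffer: 100 mM HEPES pH 7.5, 5 mM MgCl2, 1 mM DTT, BSA, Triton X-100.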
# WT BTK [2] = molecular target: T1, WT BTK; assay: Caliper-based kinase assay, WT BTK; format: biochemical; details: 0.5 nM enzyme, ATP 16 μM, room temperature 3 h; read-out: WT BTK IC50 (nM) (irreversible inhibition)
# Experimental: A Caliper-based kinase assay (Caliper Life Sciences, Hopkinton, Mass.) was used to measure inhibition of WT and […] Btk kinase activity of a compound of the present disclosure. […] The reaction was then terminated with EDTA, final concentration 20 mM and the phosphorylated reaction product was quantified on a Caliper Desktop Profiler (Caliper LabChip 3000).
# BTK = BTK (Homo sapiens, UniProt Q06187); assay: Caliper-based kinase assay, Cys-containing kinase panel: BTK; format: biochemical; details: for IC50: Cys-481 homologous kinase panel
# Excerpt: A Caliper-based kinase assay (Caliper Life Sciences, Hopkinton, Mass.) was used to measure inhibition of kinase activity of compounds of the present disclosure.
# [3] = tested on: liver cancer cell line HepG2; assay: HepG2 in vitro liver toxicity assay (ATPlite); format: cell-based; details: Homo sapiens, HepG2, about 72 hours incubation
# Experimental: Cell antiproliferation is assayed by PerkinElmer ATPlite™ Luminescence Assay System. Briefly, the liver cancer cell line HepG2 are plated at a density of about 1×10^4 cells per well in Costar 96-well plates, and are incubated with different concentrations of compounds for about 72 hours in medium supplemented with 5% FBS. One lyophilized substrate solution vial is then reconstituted by adding 5 mL of substrate buffer solution, and is agitated gently until the solution is homogeneous. About 50 μL of mammalian cell lysis solution is added to 100 μL of cell suspension per well of a microplate, and the plate is shaken for about five minutes in an orbital shaker at −700 rpm. This procedure is used to lyse the cells and to stabilize the ATP. Next, 50 μL substrate solution is added to the wells and microplate is shaken for five minutes in an orbital shaker at −700 rpm. Finally, the luminescence is measured by a PerkinElmer TopCount® Microplate Scintillation Counter. Such assays, carried out with a range of doses of test compounds, allow the determination of the cellular anti-antiproliferative IC50 of the compounds of the present invention.
# Mice PK study = format: in vivo; details: plasma, CD-1 mouse, po, 10 mg/kg; for half-life: read-out: t ½ (converted)
# Experimental: The pharmacokinetics of compounds were evaluated in CD-1 mouse via Intravenous and Oral Administration. The IV dose was administered as a slow bolus in the Jugular vein, and oral doses were administered by gavage. The formulation for IV dosing is 5% DMSO in 20% HPBCD in water, and the PO formulation is 2.5% DMSO, 10% EtOH, 20% Cremphor EL, 67.5% D5W. The PK time point for the IV arm was 5, 15, 30 min, 1, 2, 4, 6, 8, 12, 24 hours post dose, and for PO arm was 15, 30 min, 1, 2, 4, 6, 8, 12, 24 hours post dose. Approximately 0.03 mL blood was collected at each time point. Blood of each sample was transferred into plastic micro centrifuge tubes containing EDTA-K2 and plasma was collected within 15 min by centrifugation at 4000 g for 5 minutes in a 4° C. centrifuge. Plasma samples were stored in polypropylene tubes. The samples were stored in a freezer at −75±15° C. prior to analysis. Concentrations of compounds in the plasma samples were analyzed using a LC-MS/MS method. WinNonlin (Phoenix™, version 6.1) or other similar software was used for pharmacokinetic calculations. The following pharmacokinetic parameters were calculated, whenever possible from the plasma concentration versus time data: IV administration: C0, CL, Vd, T1/2, AUCinf, AUClast, MRT, Number of Points for Regression; PO administration: Cmax, Tmax, T1/2, AUCinf, AUClast, F %, Number of Points for Regression. The pharmacokinetic data was described using descriptive statistics such as mean, standard deviation. Additional pharmacokinetic or statistical analysis was performed at the discretion of the contributing scientist, and was documented in the data summary. For comparison purpose, the PK results of oral dosing of po, 25 mg/kg of Acalbrutinib, a FDA approved BTK inhibitor, were obtained using the same methods and shown in the Table below.
# [4] = tested on: CD69 surface expression in primary human B cells; assay: Inhibition of CD69 surface expression in primary human B cells; format: cell-based; details: B-cell; 1 h pre-incubation, anti-human IgM stimulation 19 hr
# Experimental: Primary human B cells (CD20+, purified by negative selection) were obtained from StemCell Technologies. Prior to experiment, the cells were thawed and washed two times with RPMI growth media supplemented with 10% FBS. The cells were seeded into 24 well plate at a density of 4×10^5 cells/per a well in a total volume of 500 uL. 6 hr after plating, serial dilutions of NW-1-96 were added. Control wells received DMSO only (0.1%). After 1 h pre-incubation with compound, the cells were stimulated for 19 hr with goat anti-human IgM F(ab′)2 (10 μg/mL; ThermoFisher). After stimulation, the cells were fixed by addition of paraformaldehyde to a final concentration of 4% and incubated for 20 min at room temperature. Fixed cells were collected into Eppendorf tubes, centrifuged at 1,000×g and washed three times with 50 mM Tris pH8.0, 100 mM NaCl. After washes, the cells were re-suspended in 100 uL of 50 mM Tris pH8.0, 100 mM NaCl, 0.1% BSA supplemented with 5 ug/mL of FITC-conjugated anti-CD69 antibody (ThermoFisher) and incubated at room temperature for 2 hr. The cells were next washed 3 times with 10 volumes of 50 mM Tris pH8.0, 100 mM NaCl, 0.1% BSA and re-suspended in 150 ul of the same buffer. […] CD69 staining was detected on Synergy Neo2 fluorescent plate reader: […].
# T1 sequence (Q06187 whole entry): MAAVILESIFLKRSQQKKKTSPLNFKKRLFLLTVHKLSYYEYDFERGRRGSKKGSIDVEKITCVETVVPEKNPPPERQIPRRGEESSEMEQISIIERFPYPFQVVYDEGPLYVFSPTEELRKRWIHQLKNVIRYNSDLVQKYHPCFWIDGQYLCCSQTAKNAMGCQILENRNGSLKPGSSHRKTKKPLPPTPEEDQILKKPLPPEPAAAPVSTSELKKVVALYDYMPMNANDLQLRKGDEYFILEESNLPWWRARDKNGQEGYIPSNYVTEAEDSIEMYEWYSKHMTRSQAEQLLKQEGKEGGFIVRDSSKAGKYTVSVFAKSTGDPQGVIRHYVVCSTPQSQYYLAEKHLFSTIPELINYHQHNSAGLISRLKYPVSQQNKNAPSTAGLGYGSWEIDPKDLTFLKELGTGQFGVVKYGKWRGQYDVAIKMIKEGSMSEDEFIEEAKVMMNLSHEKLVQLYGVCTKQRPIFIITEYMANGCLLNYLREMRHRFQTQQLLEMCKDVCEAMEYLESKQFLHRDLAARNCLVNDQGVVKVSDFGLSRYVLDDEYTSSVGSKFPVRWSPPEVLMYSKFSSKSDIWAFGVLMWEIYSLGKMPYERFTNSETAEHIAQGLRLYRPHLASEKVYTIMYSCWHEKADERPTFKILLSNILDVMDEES
# Sequence of BTK (Q06187 whole entry): as above
SMILES,Conclusion (WT BTK) (WT BTK [1]),IC50 (WT BTK [2]) [nM],IC50 (BTK) [nM],IC50 ([3]; read-out: HepG2 IC50) [nM],AUC (Mice PK study) [ng·h/mL],half-life (Mice PK study) [h],"Selectivity among kinases that contain a Cys homologous to Cys-481 in BTK (BTK; BTK versus BMX, TEC, TXK, BLK, HER4, EGFR, HER2)",IC50 [4] [nM],"IC50 ([3]; another experiment, read-out: HepG2 IC50 (another experiment)) [nM]"
"C=CC(=O)Nc1cc(Nc2nc(-c3ccnc(N4CCn5c(cc6c5CC(C)(C)C6)C4=O)c3CO)cn(C)c2=O)ccc1N1CCN(C2CCOCC2)C[C@H]1C(F)(F)F [Example 48-S, N-(5-[[6-(2-[4,4-dimethyl-9-oxo-1,10-diazatricyclo[6.4.0.0^[2,6]]dodeca-2(6),7-dien-10-yl]-3-(hydroxymethyl)pyridin-4-yl)-4-methyl-3-oxopyrazin-2-yl]amino]-2-[(2S)-4-(oxan-4-yl)-2-(trifluoromethyl)piperazin-1-yl]phenyl)prop-2-enamide]",Irreversible/covalent inhibition,0.08,0.1,64500,11600,1,–,–,–
"C=CC(=O)Nc1cc(Nc2nc(-c3ccnc(N4CCc5c(sc6c5CCCC6)C4=O)c3CO)cn(C)c2=O)ccc1N1CCN(C2CCOCC2)C[C@H]1C(F)(F)F [Example 55-S, N-[5-([6-[3-(hydroxymethyl)-2-[6-oxo-8-thia-5-azatricyclo[7.4.0.0^[2,7]]trideca-1(9), 2(7)-dien-5-yl]pyridin-4-yl]-4-methyl-3-oxopyrazin-2-yl]amino)-2-[(2S)-4-(oxan-4-yl)-2-(trifluoromethyl)piperazin-1-yl]phenyl]prop-2-enamide]",Irreversible/covalent inhibition,0.43,0.25,197000,74800,1.7,excellent selectivity,9.4,> 200000
"CC(C)(/C=C(\C#N)C(=O)N1CCC[C@@H](n2nc(-c3ccc(Oc4ccccc4)cc3F)c3c(N)ncnc32)C1)N1CCN(C2COC2)CC1 [PRN-1008, reference compound]",–,–,–,39600,–,–,–,109,–
